According to patent US20090035292A1, “Use of phosphatases to treat neuroblastomas and medulloblastomas” (priority 2007, published 2009):
“Also recorded” adds a separate entry of the source. Read-outs that look alike come from different tables or passages of the source.

Assays:
[1] = system: neuroblastoma; conditions: given for 6 months to high risk patients after chemotherapeutic, surgical and radiation treatments (Matthay et al., 1999); cited from earlier work
[2] = system: medulloblastoma cell line, DAOY; conditions: cited from earlier work
[3] = system: medulloblastoma cell line, DAOY; experiment: Proliferation of medulloblastoma cell line DAOY in vitro; type: cell-based, human
Method: FIG. 4. […] The medulloblastoma cell line, DAOY, was exposed to 20 μM Compound 100 (squares), 5 μM Compound 100 (triangles), 1 μM Compound 100 (x's) or vehicle only (diamonds) for 3 days.
FIG. 5. […] The medulloblastoma cell line, DAOY, was exposed to 50 μM ATRA (squares), 20 μM ATRA (triangles), 5 μM ATRA (X's) or vehicle only (diamonds) for 3 days.
FIG. 6. […] The medulloblastoma cell line, DAOY, was exposed to 2 mM valproic acid (squares), 1 mM valproic acid (triangles), 0.5 mM valproic acid (X's) or vehicle only (diamonds) for 3 days.
The human medulloblastoma cell line DAOY is available from the American Type Culture Collection (ATCC), P.O. Box 1549, Manassas, Va., 20108, as ATCC No. HTB-186.
The medulloblastoma cell line, DAOY, was exposed to the cantharidin analog, Compound 100 at concentrations of 1 μM, 5 μM and 20 μM and evaluated for cellular proliferation over the course of three days. […] Therefore, Compound 100 even at low concentration is capable of preventing cellular proliferation.
To confirm these observations, cultured DAOY cells were treated with 50 μM, 20 μM, 5 μM or vehicle only for three days and examined for cellular proliferation. […] Consequently, because it has been determined that proliferation of medulloblastoma cells is inhibited by Compound 100, ATRA and valproic acid as single agent, it is reasonable to expect that the combination of compound 100 with each of these compounds or a regimen of all three agents may be effective in the treatment of medulloblastoma.
The medulloblastoma cell line, DAOY, was exposed to the HDAC inhibitor, Compound 205 at 10 μM, ATRA at 50 μM, and the compound 205 at 10 μM combined with ATRA at 50 μM, and evaluated for cellular proliferation over the course of seven days. […] (FIG. 8) Therefore, we have shown that Compound 205 is active against medulloblastoma cell line DAOY.

[4] = system: neuroblastoma cell line, SH-SY5Y; conditions: cited from earlier work
[5] = system: neuroblastoma cell line, SH-SY5Y; experiment: Proliferation of neuroblastoma cell line SH-SY5Y in vitro; type: cell-based, human
Method: FIG. 1. […] The neuroblastoma cell line, SH-SY5Y, was exposed to Compound 100 for 4 or 7 days at concentrations of 1 μM (squares), 5 μM (triangles), 10 μM (short dashed line), 20 μM (diamonds), 50 μM (long dashed line) or vehicle only (circles).
FIG. 2. […] The neuroblastoma cell line, SH-SY5Y, was exposed to 5 μM Compound 100 (squares), 25 μM ATRA (circles), the combination of 5 μM Compound 100 and 25 μM ATRA (dashed line) or vehicle only (black line) for 4 or 7 days. […]
The human neuroblastoma cell line SH-SY5Y is available from the European Collection of Cell Cultures, Health Protection Agency, Porton Down SP40JG Salisbury, Wiltshire UK, as ECACC No. 94030304.
The neuroblastoma cell line, SHSY5Y, was exposed to the cantharidin analog Compound 100 for 4 or 7 days at concentrations of 1, 5, 10, 20 and 50 μM.
Subsequently, SH-SY5Y cells were exposed to Compound 100 at a concentration of 5 μM, ATRA at 25 μM or the combination of the two drugs at the aforementioned doses for 4 or 7 days. […]

[6] = system: human glioblastoma multiforme; conditions: cited from earlier work
[7] = system: neuroblastoma cell line SHSY xenograft; experiment: SHSY xenograft in SCID mice; type: in vivo; conditions: measured day 7 and day 14, vs vehicle (FIG. 9)
Method: (§1) SHSY cells (5 million) were implanted subcutaneously in the flank of SCID mice. After the xenografts reached a size of ˜100 cubic mm, treatment was instituted with vehicle alone (control), compound 100 (1.5 mg/kg) or compound 205 (10 mg/kg) daily intraperitoneally for 14 days. Xenograft masses were measured day 7 and day 14 of treatment.
as §1, with “Compound” for “compound”

[8] = system: medulloblastoma cell line DAOY xenograft tumors; experiment: DAOY xenograft tumors in SCID mice; type: in vivo; conditions: 1.5 mg/kg daily intraperitoneally for 21 days, measured at days 7, 14 and 21 of treatment, vs vehicle (FIG. 7)
Method: DAOY cells (5 million) were implanted subcutaneously in the flank of SCID mice (Day 0). After the xenografts reached a size of ˜130 cubic mm, treatment was instituted with vehicle alone (control), compound 100 (1.5 mg/kg), or compound 102 (1.5 mg/kg) daily intraperitoneally for 21 days (beginning at day 7). Xenograft masses were measured at days 7, 14 and 21 of treatment.

[9] = compound 205 at 10 μM combined with ATRA at 50 μM, seven days (FIG. 8)

With `CC1=C(/C=C/C(C)=C/C=C/C(C)=C\C(=O)O)C(C)(C)CCC1` [13-cis-retinoic acid] as the molecule, how does the survival [1] read?
Its survival is “survival is improved significantly”.

Which results are given for `CC1=C(/C=C/C(C)=C/C=C/C(C)=C/C(=O)O)C(C)(C)CCC1` [ATRA, all-trans retinoic acid, reference compound]?
cellular proliferation ([2]; varying concentration of ATRA (Chang et al., 2007; Gumireddy et al., 2003)): inhibits cellular proliferation; rate of cellular proliferation ([3]; ATRA at 50 μM alone, seven days, vs vehicle (FIG. 8)): decreased rates of cellular proliferation as compared to the control; inhibition of cellular proliferation ([3]; ATRA at 50 μM, 20 μM, 5 μM, three days (FIG. 5)): inhibits proliferation of medulloblastoma cells; also recorded: inhibited proliferation to varying degrees; cellular proliferation ([4]; long-term treatment with ATRA, demonstrated previously): can inhibit cellular proliferation; cellular migration and invasion ([4]; short term treatment (1-3 days) with ATRA (Joshi et al 2006)): induced cellular migration and invasion; proliferation ([5]; 10 μM ATRA alone, day 4 (FIG. 3)): did not prevent proliferation; inhibition of cellular proliferation ([5]; 25 μM ATRA alone, 4 or 7 days (FIG. 2)): did not impair cellular proliferation until after day 4

Which “rate of cellular proliferation” value ([3]; 20 μM Compound 100, three days (FIG. 4, squares)) does the source give for `CN1CCN(C(=O)C2C(C(=O)O)[C@H]3CC[C@@H]2O3)CC1` (stereo partly shown) [Compound 100] here?
The value was “greatest decrease in cellular proliferation”.

What about the “rate of cellular proliferation” value ([3]; Compound 100 at 1 μM, 5 μM and 20 μM, three days, vs vehicle (FIG. 4)) of the same molecule?
Its value is “inhibits proliferation of medulloblastoma cells; also recorded: decreased rates of cellular proliferation as compared to the control”.

What about the “inhibition of human cancer cells in vitro” value ([6]; Compound 100 in combination with trichostatin A (PCT/US2007/003095)) of the same molecule?
Its value is “better then would be expected from the combination of the agents alone”.

And the “inhibition of human cancer cells in vitro” value ([6]; Compound 100 in combination with valproic acid (PCT/US2007/003095))?
Its value is “better then would be expected from the combination of the agents alone”.

What about the cellular proliferation ([6]; combination of ATRA with Compound 100, human glioblastoma multiforme (PCT/US2007/003095)) of the same molecule?
The cellular proliferation was “highly effective in preventing cellular proliferation”.

And the “proliferation of xenograft (xenograft mass)” value (“proliferation of xenograft” below) ([7]; Compound 100 1.5 mg/kg daily intraperitoneally for 14 days, 1.5 mg/kg)?
Its value is “inhibits the proliferation of the neuroblastoma cell line SHSY xenograft”.

And the “proliferation of xenograft” value [8]?
Its value is “inhibits the proliferation of the medulloblastoma cell line DAOY xenograft tumors; also recorded: inhibit the proliferation of DAOY cells”.

What about the “inhibition of cellular proliferation” value ([5]; 5 μM Compound 100 alone, 4 or 7 days (FIG. 2)) of the same molecule?
The value was “failed to significantly inhibit cellular proliferation”.

And the proliferation inhibition ([5]; 10 μM ATRA and 10 μM Compound 100 (FIG. 3))?
Its proliferation inhibition is “exhibited high levels of proliferation inhibition”.

What about the proliferation ([5]; 10 μM Compound 100 alone (FIG. 3)) of the same molecule?
Its proliferation is “proliferation was greatly reduced”.

What about the synergy in combinations ([5]; 10 μM Compound 100 with 10 μM ATRA, 2.5 mM valproic acid or both (FIG. 3)) of the same molecule?
The synergy in combinations was “synergistically enhanced the activity of ATRA, valproic acid and valproic acid in combination with ATRA”.

What about the proliferation inhibition ([5]; 2.5 mM valproic acid and 10 μM Compound 100 (FIG. 3)) of the same molecule?
Its proliferation inhibition is “exhibited high levels of proliferation inhibition”.

And the proliferation inhibition ([5]; 2.5 mM valproic acid, 10 μM ATRA and 10 μM Compound 100 (FIG. 3))?
The proliferation inhibition was “severely inhibits proliferation of neuroblastoma cells; also recorded: exhibited high levels of proliferation inhibition”.

And the “inhibition of cell proliferation” value ([5]; Compound 100 at 1 μM and 5 μM, day 4, vs vehicle (FIG. 1))?
The value was “little or no inhibition of cell proliferation”.

And the cell growth ([5]; Compound 100 at 1 μM and 5 μM, day 7, vs vehicle (FIG. 1))?
The cell growth was “enhanced cell growth”.

What about the inhibition of proliferation ([5]; Compound 100 at 1, 5, 10, 20, 50 μM for 4 or 7 days (FIG. 1 legend)) of the same molecule?
Its inhibition of proliferation is “inhibits proliferation of neuroblastoma cells”.

And the growth inhibition ([5]; Compound 100 at doses less than 50 μM, day 7 (FIG. 1))?
Its growth inhibition is “escape of growth inhibition”.

What about the cellular proliferation ([5]; Compound 100 at low doses) of the same molecule?
Its cellular proliferation is “slightly stimulates cellular proliferation”.

What about the “inhibition of cell proliferation” value ([5]; Compound 100 at the three higher doses (10, 20, 50 μM), day 4 (FIG. 1)) of the same molecule?
The value was “Dose dependent inhibition”.

What about the “inhibition of cellular proliferation” value ([5]; combination of 5 μM Compound 100 and 25 μM ATRA, day 4 and day 7 (FIG. 2)) of the same molecule?
The value was “inhibits proliferation of neuroblastoma cells”.

And the “inhibition of cellular proliferation” value ([5]; combination of 5 μM Compound 100 and 25 μM ATRA, day 4 and day 7 (FIG. 2), listed as compound 100)?
The value was “potentiated the extent of inhibition by ATRA”.

With `CC(C)(C)OC(=O)N1CCN(C(=O)C2C(C(=O)O)[C@H]3CC[C@@H]2O3)CC1` (stereo partly shown) [Compound 102] as the molecule, how does the “proliferation of xenograft” value [8] read?
Its value is “inhibits the proliferation of the medulloblastoma cell line DAOY xenograft tumors; also recorded: inhibit the proliferation of DAOY cells”.

For `O=C(CCCCCNC(=O)c1ccccc1S)Nc1cccnc1` [Compound 205], which “rate of cellular proliferation” value ([3]; Compound 205 at 10 μM alone, seven days, vs vehicle (FIG. 8)) is on record?
Its value is “decreased rates of cellular proliferation as compared to the control; also recorded: inhibits proliferation of the medulloblastoma cell line DAOY”.

And the “rate of cellular proliferation” value [3, 9]?
Its value is “inhibits proliferation of the medulloblastoma cell line DAOY”.

What about the synergy in combination [3, 9] of the same molecule?
Its synergy in combination is “synergistically active”.

What about the “rate of cellular proliferation” value ([3]; compound 205 at 10 μM combined with ATRA at 50 μM, seven days (FIG. 8), listed as compound 205) of the same molecule?
Its value is “marked decrease in the rate of cellular proliferation”.

What about the “proliferation of xenograft” value ([7]; Compound 205 10 mg/kg daily intraperitoneally for 14 days, 10 mg/kg) of the same molecule?
Its value is “inhibits the proliferation of the neuroblastoma cell line SHSY xenograft”.

Which cell proliferation ([2]; 0.6 mmol/L valproic acid, 21 days (Li, et al., 2005)) does the source give for `CCCC(CCC)C(=O)O` [valproic acid, reference compound] here?
Its cell proliferation is “suppressed cell proliferation”.

What about the cell proliferation ([2]; 1 mmol/L valproic acid, 10 days (Li, et al., 2005)) of the same molecule?
The cell proliferation was “suppressed cell proliferation”.

What about the inhibition of proliferation ([3]; valproic acid at 2 mM, 1 mM or 0.5 mM, three days (FIG. 6)) of the same molecule?
The inhibition of proliferation was “inhibits proliferation of medulloblastoma cells; also recorded: inhibition of proliferation”.

What about the proliferation ([5]; 2.5 mM valproic acid alone (FIG. 3)) of the same molecule?
The proliferation was “proliferation was greatly reduced”.

What about the inhibition of proliferation ([5]; 2.5 mM valproic acid and 10 μM ATRA (FIG. 3)) of the same molecule?
The inhibition of proliferation was “exhibited inhibition of proliferation”.
